Experimental data as given in US20040192554A1, “Technique for effectively treating an agricultural product with a 1-substituted-cyclopropene” (priority 2003, published 2004).

How the values were obtained:
Assay type in all cases: in vivo
[1] = test system: Japanese pear (variety "Hosui") fruit; assay: Quality deterioration of Japanese pear (Hosui) fruit after storage, Example 4; conditions: 1 ppm, after storage 25 degrees C 2 weeks
Protocol: Using a Japanese pear (variety “Hosui”) fruit (6 fruits were used per group) as an agricultural product, the following experiment was performed.
(§1) 1) A fruit and 1-methylcyclopropene (concentration 1 ppm in a chamber) were placed into a sealed chamber, and contact-treated for 16 hours under a normal pressure.
(§2) 2) A fruit was placed into a sealed chamber, and a pressure in the chamber was reduced to 25.0 kPa. Subsequently, 1-methylcyclopropene was placed therein to the concentration in the chamber of 1 ppm, and contact-treated for 1 minute under the reduced pressure (25.0 kPa).
(§3) The fruit which had been subjected to treatment of the above-mentioned 1) or 2) was stored at 25 degrees C for 2 weeks, and hardness of flesh and pH of a fruit juice which is an index for the content of an acid were measured. Contact treatment of the above-mentioned 1) or 2) was performed on a day of harvesting a fruit. In addition, also regarding a fruit undergoing no treatment of 1) or 2) (non-treatment), similar storage was performed, and the above-mentioned index was measured. Further, regarding non-treated fruit, the above-mentioned index before storage was also measured. Different alpha characters in Table 4 indicate that a significant difference was recognized at a risk rate of 5% (multiple range test of Newman-Keuls).

[2] = test system: apple (variety "Sansa") fruit; assay: Quality deterioration of apple (Sansa) fruit after storage, Example 5; conditions: 1 ppm, after storage 25 degrees C 2 weeks
Protocol: Using an apple (variety “Sansa”) fruit (6 fruits were used per group) as an agricultural product, the following experiment was performed.
1) A fruit and 1-methylcyclopropene (concentration 1 ppm in a chamber) were placed into a sealed chamber, and contact-treated for 12 hours under a normal pressure.
as §2
as §3, with “of flesh,” for “of flesh and”, “an acid, and the ethylene concentration in a fruit core” for “an acid”, “on the following” for “on a”

[3] = test system: apple (variety "Orin") fruit; assay: Quality deterioration of apple (Orin) fruit after storage, Example 6; conditions: 1 ppm, after storage 25 degrees C 3 weeks
Protocol: Using an apple (variety “Orin”) fruit (6 fruits were used per group) as an agricultural product, the following experiment was performed.
as §1
2) A fruit was placed into a sealed chamber, and a pressure in the chamber was reduced to 25.0 kPa. Subsequently, 1-methylcyclopropene was placed therein to the concentration in the chamber of 1 ppm, and contact-treated for 1 hour under the reduced pressure (25.0 kPa).
3) A fruit was placed into a sealed chamber. Subsequently, a pressure in the chamber was reduced to 25.0 kPa, and the fruit was kept in the chamber for 1 hour under the reduced pressure (25.0 kPa).
The fruit which had been subjected to treatment of the above-mentioned 1), 2) or 3) was stored at 25 degrees C for 3 weeks, and hardness of flesh and mealy of flesh were measured. In addition, treatments of the above-mentioned 1), 2) and 3) were performed regarding fruits which had been stored for about 1 month after harvesting of fruit. In addition, also regarding a fruit undergoing no treatment of 1), 2) or 3) (non-treatment), similar storage was performed, and the above-mentioned index was measured. Further, regarding non-treated fruit, the above-mentioned index before storage was also measured. Different alpha characters in Table 6 indicate that a significant difference was recognized at a risk rate of 5% (multiple range test of Newman-Keuls).

[4] = test system: peach (variety "Akatsuki") fruit; assay: Quality deterioration of peach (Akatsuki) fruit after storage, Example 9; conditions: 1 ppm, after storage 25 degrees C 5 days, treated day after harvest
Protocol: Using a peach (variety “Akatsuki”) fruit (6 fruits were used per group) as an agricultural product, the following experiment was performed.
as §2, with “1)” for “2)”, “kPa). Then, the pressure was returned to a normal pressure, and contact treatment was carried out for 12 hours while the concentration of 1-methylcyclopropene in the chamber was maintained at 1 ppm.” for “kPa).”
2) A fruit was placed into a sealed chamber, and a pressure in the chamber was reduced to 25.0 kPa. Subsequently, 1-methylcyclopropene was placed therein to the concentration in the chamber of 1 ppm, and contact-treated for 12 hours under the reduced pressure (25.0 kPa).
The fruit which had been subjected to treatment of the above-mentioned 1) or 2) was stored at 25 degrees C for 5 days, and hardness of flesh was measured. […] In addition, also regarding a fruit undergoing no treatment of 1) or 2) (non-treatment), similar storage was performed, and the above-mentioned index was measured. Further, regarding a non-treated fruit, the above-mentioned index before storage was also measured. […]

[5] = Reduced pressure (25.0 kPa) 1 minute
[6] = Reduced pressure (25.0 kPa) 1 hour

CC1=CC1 [1-MCP, 1-methylcyclopropene]
Hardness of flesh ([1]; Normal pressure 16 hours): 18.72 N | pH of fruit juice ([1]; Normal pressure 16 hours): 4.37a | Hardness of flesh [1, 5]: 17.25 N | pH of fruit juice [1, 5]: 4.43a | Ethylene concentration in fruit core ([2]; Normal pressure 12 hours): 1.86a μL/L | Hardness of flesh ([2]; Normal pressure 12 hours): 61.05b N | pH of fruit juice ([2]; Normal pressure 12 hours): 3.38a | Ethylene concentration in fruit core [2, 5]: 0.97a μL/L | Hardness of flesh [2, 5]: 63.21b N | pH of fruit juice [2, 5]: 3.40a | Hardness of flesh ([3]; Normal pressure 16 hours): 42.06ab N | Mealy of flesh ([3]; Normal pressure 16 hours): Slight | Hardness of flesh [3, 6]: 44.02b N | Mealy of flesh [3, 6]: Slight | Hardness of flesh ([4]; Normal pressure 12 hours after reduced pressure (25.0 kPa) 1 minute): 4.39a N | Hardness of flesh ([4]; Reduced pressure (25.0 kPa) 12 hours): 7.11b N
